Laboratory results from ChEMBL document CHEMBL4507302, “Data for DCP probe TP-020” (2021).

How the values were obtained:
[1] = tested on: Tyrosine-protein kinase ABL1 (Homo sapiens), P00519 [T315I]; conditions: Compound concentration 1000.0 nM
[2] = target: Activin receptor type-1-like (Homo sapiens) (UniProt P37023); conditions: Compound concentration 1000.0 nM
[3] = target: Mitogen-activated protein kinase kinase kinase 5 (Homo sapiens) (UniProt Q99683); conditions: Compound concentration 1000.0 nM
[4] = target: Aurora kinase A (Homo sapiens) (UniProt O14965); conditions: Compound concentration 1000.0 nM
[5] = target: Calcium/calmodulin-dependent protein kinase type 1G (Homo sapiens) (UniProt Q96NX5); conditions: Compound concentration 1000.0 nM
[6] = target: Cyclin-dependent kinase 11B (Homo sapiens) (UniProt P21127); conditions: Compound concentration 1000.0 nM
[7] = target: Cyclin-dependent kinase 4 (Homo sapiens) (UniProt P11802); conditions: Compound concentration 1000.0 nM
[8] = target: Dual specificity protein kinase CLK2 (Homo sapiens) (UniProt P49760); conditions: Compound concentration 1000.0 nM
[9] = target: Death-associated protein kinase 2 (Homo sapiens) (UniProt Q9UIK4); conditions: Compound concentration 1000.0 nM
[10] = target: Mitogen-activated protein kinase 3 (Homo sapiens) (UniProt P27361); conditions: Compound concentration 1000.0 nM
[11] = target: Vascular endothelial growth factor receptor 1 (Homo sapiens) (UniProt P17948); conditions: Compound concentration 1000.0 nM
[12] = tested on: Receptor-type tyrosine-protein kinase FLT3 (Homo sapiens), P36888 [UNDEFINED MUTATION]; conditions: Compound concentration 1000.0 nM
[13] = tested on: Receptor-type tyrosine-protein kinase FLT3 (Homo sapiens), P36888 [UNDEFINED MUTATION]; conditions: Compound concentration 1000.0 nM; remark: listed apart in the source
[14] = target: Rhodopsin kinase GRK7 (Homo sapiens) (UniProt Q8WTQ7); conditions: Compound concentration 1000.0 nM
[15] = target: Insulin-like growth factor 1 receptor (Homo sapiens) (UniProt P08069); conditions: Compound concentration 1000.0 nM
[16] = target: Inhibitor of nuclear factor kappa-B kinase subunit alpha (Homo sapiens) (UniProt O15111); conditions: Compound concentration 1000.0 nM
[17] = target: Insulin receptor (Homo sapiens) (UniProt P06213); conditions: Compound concentration 1000.0 nM
[18] = target: Tyrosine-protein kinase JAK1 (Homo sapiens) (UniProt P23458); conditions: Compound concentration 1000.0 nM
[19] = target: Tyrosine-protein kinase JAK3 (Homo sapiens) (UniProt P52333); conditions: Compound concentration 1000.0 nM
[20] = target: Mitogen-activated protein kinase 9 (Homo sapiens) (UniProt P45984); conditions: Compound concentration 1000.0 nM
[21] = target: Mitogen-activated protein kinase kinase kinase kinase 5 (Homo sapiens) (UniProt Q9Y4K4); conditions: Compound concentration 1000.0 nM
[22] = target: Dual specificity mitogen-activated protein kinase kinase 4 (Homo sapiens) (UniProt P45985); conditions: Compound concentration 1000.0 nM
[23] = tested on: Hepatocyte growth factor receptor (Homo sapiens), P08581 [Y1235D]; conditions: Compound concentration 1000.0 nM
[24] = target: Myosin light chain kinase (Homo sapiens) (UniProt Q32MK0); conditions: Compound concentration 1000.0 nM
[25] = target: Mitogen-activated protein kinase kinase kinase 10 (Homo sapiens) (UniProt Q02779); conditions: Compound concentration 1000.0 nM
[26] = target: Serine/threonine-protein kinase 38 (Homo sapiens) (UniProt Q15208); conditions: Compound concentration 1000.0 nM
[27] = target: Serine/threonine-protein kinase Nek6 (Homo sapiens) (UniProt Q9HC98); conditions: Compound concentration 1000.0 nM
[28] = target: Mitogen-activated protein kinase 13 (Homo sapiens) (UniProt O15264); conditions: Compound concentration 1000.0 nM
[29] = target: Cyclin-dependent kinase 2 homolog (Plasmodium falciparum (isolate 3D7)) (UniProt P61075); conditions: Compound concentration 1000.0 nM
[30] = tested on: Phosphatidylinositol 4,5-bisphosphate 3-kinase catalytic subunit alpha isoform (Homo sapiens), P42336 [C420R]; conditions: Compound concentration 1000.0 nM
[31] = tested on: Phosphatidylinositol 4,5-bisphosphate 3-kinase catalytic subunit alpha isoform (Homo sapiens), P42336 [Q546K]; conditions: Compound concentration 1000.0 nM
[32] = target: Phosphatidylinositol 4-phosphate 5-kinase type-1 gamma (Homo sapiens) (UniProt O60331); conditions: Compound concentration 1000.0 nM
[33] = target: Serine/threonine-protein kinase PLK3 (Homo sapiens) (UniProt Q9H4B4); conditions: Compound concentration 1000.0 nM
[34] = target: Protein kinase C epsilon type (Homo sapiens) (UniProt Q02156); conditions: Compound concentration 1000.0 nM
[35] = target: Protein kinase C eta type (Homo sapiens) (UniProt P24723); conditions: Compound concentration 1000.0 nM
[36] = target: Proto-oncogene tyrosine-protein kinase ROS (Homo sapiens) (UniProt P08922); conditions: Compound concentration 1000.0 nM
[37] = target: SRSF protein kinase 2 (Homo sapiens) (UniProt P78362); conditions: Compound concentration 1000.0 nM
[38] = target: Dual specificity protein kinase TTK (Homo sapiens) (UniProt P33981); conditions: Compound concentration 1000.0 nM
[39] = target: Non-receptor tyrosine-protein kinase TYK2 (Homo sapiens) (UniProt P29597); conditions: Compound concentration 1000.0 nM
[40] = target: Serine/threonine-protein kinase ULK3 (Homo sapiens) (UniProt Q6PHR2); conditions: Compound concentration 1000.0 nM
[41] = target: Vascular endothelial growth factor receptor 2 (Homo sapiens) (UniProt P35968); conditions: Compound concentration 1000.0 nM
[42] = target: Serine/threonine-protein kinase WNK1 (Homo sapiens) (UniProt Q9H4A3); conditions: Compound concentration 1000.0 nM
[43] = target: Serine/threonine-protein kinase 32A (Homo sapiens) (UniProt Q8WU08); conditions: Compound concentration 1000.0 nM
[44] = target: D(1A) dopamine receptor (Homo sapiens) (UniProt P21728); conditions: Compound concentration 10.0 uM
[45] = target: Delta-type opioid receptor (Homo sapiens) (UniProt P41143); conditions: Compound concentration 10.0 uM

Chain of Receptor-type tyrosine-protein kinase FLT3 (Homo sapiens), P36888 [UNDEFINED MUTATION] (P36888 whole entry, looked up, change not shown): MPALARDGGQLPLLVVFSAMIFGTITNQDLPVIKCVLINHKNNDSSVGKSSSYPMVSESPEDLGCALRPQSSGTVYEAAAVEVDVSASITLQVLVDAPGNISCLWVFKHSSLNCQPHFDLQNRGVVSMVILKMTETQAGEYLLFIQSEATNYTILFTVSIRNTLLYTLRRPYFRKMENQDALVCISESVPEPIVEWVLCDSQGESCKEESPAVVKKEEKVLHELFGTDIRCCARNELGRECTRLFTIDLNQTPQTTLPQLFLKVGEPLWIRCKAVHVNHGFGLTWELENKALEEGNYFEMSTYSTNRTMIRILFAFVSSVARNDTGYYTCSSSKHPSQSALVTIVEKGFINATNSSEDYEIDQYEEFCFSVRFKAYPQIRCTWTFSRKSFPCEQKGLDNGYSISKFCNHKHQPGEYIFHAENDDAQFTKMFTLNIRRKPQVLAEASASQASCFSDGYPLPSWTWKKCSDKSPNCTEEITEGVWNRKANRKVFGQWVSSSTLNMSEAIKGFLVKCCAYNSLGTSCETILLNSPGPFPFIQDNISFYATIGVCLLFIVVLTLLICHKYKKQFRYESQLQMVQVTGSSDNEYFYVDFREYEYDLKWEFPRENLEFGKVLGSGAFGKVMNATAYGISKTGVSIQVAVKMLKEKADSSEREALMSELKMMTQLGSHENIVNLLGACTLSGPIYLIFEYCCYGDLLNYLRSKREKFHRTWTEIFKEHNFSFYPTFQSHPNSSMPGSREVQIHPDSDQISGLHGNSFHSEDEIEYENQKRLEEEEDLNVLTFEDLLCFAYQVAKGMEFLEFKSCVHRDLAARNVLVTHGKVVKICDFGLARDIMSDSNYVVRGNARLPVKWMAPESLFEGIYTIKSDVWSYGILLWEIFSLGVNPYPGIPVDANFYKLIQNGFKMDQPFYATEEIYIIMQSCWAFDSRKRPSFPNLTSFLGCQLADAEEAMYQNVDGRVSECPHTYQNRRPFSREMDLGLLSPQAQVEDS
Chain of Mitogen-activated protein kinase kinase kinase 5 (Homo sapiens) (Q99683 whole entry): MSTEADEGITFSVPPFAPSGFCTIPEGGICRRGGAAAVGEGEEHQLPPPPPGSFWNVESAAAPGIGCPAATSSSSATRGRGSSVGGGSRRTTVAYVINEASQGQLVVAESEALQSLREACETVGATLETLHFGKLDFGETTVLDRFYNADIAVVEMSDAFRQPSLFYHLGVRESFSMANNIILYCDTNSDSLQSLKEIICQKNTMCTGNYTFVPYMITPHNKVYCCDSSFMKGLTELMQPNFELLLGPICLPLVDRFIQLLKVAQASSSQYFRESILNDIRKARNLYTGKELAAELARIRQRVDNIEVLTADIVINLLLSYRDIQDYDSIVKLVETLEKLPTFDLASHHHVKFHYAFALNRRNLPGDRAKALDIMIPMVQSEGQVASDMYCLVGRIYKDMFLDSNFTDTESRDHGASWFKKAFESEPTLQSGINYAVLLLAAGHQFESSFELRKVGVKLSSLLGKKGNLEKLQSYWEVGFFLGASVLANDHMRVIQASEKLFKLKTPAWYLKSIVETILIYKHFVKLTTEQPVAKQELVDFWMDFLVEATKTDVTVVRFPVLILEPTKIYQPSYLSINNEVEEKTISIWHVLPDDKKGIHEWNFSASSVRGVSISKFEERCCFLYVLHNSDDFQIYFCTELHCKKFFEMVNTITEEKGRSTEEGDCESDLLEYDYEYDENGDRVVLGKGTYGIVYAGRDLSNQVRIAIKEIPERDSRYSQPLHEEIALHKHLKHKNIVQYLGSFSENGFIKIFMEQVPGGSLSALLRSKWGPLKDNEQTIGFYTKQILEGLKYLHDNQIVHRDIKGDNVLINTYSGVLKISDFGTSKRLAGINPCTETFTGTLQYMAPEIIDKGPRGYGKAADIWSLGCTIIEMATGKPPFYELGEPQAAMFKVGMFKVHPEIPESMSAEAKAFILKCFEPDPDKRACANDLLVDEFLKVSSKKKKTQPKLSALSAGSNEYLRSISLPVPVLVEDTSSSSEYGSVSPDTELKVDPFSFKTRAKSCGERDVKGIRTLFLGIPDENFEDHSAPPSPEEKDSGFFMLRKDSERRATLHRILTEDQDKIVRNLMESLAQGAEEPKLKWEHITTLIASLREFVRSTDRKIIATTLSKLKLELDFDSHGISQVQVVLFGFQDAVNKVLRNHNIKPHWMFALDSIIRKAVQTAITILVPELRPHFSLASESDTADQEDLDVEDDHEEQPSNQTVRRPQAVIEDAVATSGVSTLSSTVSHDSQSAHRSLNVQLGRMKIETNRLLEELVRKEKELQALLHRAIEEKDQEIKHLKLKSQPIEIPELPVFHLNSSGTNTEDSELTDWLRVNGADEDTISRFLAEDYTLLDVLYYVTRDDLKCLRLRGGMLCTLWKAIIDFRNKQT
Chain of Dual specificity mitogen-activated protein kinase kinase 4 (Homo sapiens) (P45985 whole entry): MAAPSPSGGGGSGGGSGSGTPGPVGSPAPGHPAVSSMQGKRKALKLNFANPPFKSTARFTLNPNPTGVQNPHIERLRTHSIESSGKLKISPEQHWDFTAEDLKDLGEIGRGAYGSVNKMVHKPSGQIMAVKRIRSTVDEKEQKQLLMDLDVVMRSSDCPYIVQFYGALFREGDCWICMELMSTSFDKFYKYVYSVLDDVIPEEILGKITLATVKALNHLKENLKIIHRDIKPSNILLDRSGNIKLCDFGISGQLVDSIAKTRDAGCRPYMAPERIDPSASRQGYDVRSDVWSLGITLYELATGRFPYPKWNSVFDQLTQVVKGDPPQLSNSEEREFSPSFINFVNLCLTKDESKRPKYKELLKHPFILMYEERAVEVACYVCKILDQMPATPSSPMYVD
Chain of Mitogen-activated protein kinase 13 (Homo sapiens) (O15264 whole entry): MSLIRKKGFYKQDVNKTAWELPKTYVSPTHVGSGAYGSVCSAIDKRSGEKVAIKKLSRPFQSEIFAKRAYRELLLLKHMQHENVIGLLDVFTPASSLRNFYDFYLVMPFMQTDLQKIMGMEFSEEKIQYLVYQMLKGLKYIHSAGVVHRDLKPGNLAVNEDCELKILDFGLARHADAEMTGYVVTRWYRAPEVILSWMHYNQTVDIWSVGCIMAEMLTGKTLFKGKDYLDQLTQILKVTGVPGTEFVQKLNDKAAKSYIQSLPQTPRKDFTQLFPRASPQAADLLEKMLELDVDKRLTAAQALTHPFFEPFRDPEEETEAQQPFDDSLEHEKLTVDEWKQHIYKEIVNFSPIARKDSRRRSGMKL
Chain of Dual specificity protein kinase CLK2 (Homo sapiens) (P49760 whole entry, looked up): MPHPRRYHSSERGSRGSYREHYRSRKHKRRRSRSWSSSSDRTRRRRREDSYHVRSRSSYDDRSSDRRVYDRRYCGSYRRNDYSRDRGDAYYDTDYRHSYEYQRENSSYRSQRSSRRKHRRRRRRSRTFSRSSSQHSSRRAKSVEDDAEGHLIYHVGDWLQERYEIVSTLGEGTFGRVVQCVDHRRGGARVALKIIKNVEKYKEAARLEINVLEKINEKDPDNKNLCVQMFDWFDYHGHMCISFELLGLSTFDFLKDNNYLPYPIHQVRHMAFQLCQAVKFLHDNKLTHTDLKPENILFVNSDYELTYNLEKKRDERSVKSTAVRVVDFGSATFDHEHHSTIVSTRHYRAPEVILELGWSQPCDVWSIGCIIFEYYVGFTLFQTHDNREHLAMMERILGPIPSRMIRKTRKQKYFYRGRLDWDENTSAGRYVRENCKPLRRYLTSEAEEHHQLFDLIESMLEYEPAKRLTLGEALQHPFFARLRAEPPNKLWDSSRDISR
Chain of D(1A) dopamine receptor (Homo sapiens) (P21728 whole entry): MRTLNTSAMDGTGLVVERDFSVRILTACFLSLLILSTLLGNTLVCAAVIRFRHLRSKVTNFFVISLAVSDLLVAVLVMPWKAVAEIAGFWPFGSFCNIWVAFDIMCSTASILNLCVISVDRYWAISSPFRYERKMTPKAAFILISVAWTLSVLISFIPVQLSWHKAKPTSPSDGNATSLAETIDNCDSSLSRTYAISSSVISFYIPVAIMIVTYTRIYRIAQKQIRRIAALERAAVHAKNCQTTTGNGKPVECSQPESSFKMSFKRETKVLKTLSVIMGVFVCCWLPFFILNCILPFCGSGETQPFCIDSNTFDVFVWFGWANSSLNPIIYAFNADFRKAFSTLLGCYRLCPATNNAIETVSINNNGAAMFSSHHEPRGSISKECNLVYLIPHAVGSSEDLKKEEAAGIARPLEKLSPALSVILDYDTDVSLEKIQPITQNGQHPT
Chain of Phosphatidylinositol 4-phosphate 5-kinase type-1 gamma (Homo sapiens) (O60331 whole entry): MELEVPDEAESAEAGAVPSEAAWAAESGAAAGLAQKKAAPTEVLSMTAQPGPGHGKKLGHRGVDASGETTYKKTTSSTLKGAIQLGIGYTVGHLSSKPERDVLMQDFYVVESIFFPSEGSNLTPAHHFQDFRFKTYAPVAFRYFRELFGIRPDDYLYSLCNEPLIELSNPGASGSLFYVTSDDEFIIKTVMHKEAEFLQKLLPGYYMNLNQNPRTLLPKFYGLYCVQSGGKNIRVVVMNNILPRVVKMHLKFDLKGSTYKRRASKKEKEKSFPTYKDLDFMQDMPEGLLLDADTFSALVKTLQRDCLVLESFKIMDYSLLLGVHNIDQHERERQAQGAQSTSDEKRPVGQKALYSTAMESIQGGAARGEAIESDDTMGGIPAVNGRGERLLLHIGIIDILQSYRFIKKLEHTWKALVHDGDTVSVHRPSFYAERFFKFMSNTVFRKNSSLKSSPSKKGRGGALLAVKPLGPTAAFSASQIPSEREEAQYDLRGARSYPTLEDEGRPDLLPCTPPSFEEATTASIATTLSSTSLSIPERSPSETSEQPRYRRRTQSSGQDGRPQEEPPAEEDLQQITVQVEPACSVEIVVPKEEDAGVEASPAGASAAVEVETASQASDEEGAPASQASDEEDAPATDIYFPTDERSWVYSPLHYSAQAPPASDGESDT
Chain of Cyclin-dependent kinase 2 homolog (Plasmodium falciparum (isolate 3D7)) (P61075 whole entry, canonical isoform): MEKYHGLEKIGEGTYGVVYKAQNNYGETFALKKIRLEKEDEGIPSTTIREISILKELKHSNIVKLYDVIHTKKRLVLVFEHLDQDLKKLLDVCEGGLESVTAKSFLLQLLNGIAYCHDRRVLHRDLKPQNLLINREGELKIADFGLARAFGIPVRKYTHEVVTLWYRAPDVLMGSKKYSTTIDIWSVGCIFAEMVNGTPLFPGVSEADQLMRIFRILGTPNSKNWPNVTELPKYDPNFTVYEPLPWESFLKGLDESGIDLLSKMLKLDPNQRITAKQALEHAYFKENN

## Nc1cnc(N2CCc3cc(S(=O)(=O)Nc4c(F)cc(Cl)cc4F)cc(N4CCCC4=O)c32)nc1
[1]
  residual activity: 98%
[2]
  residual activity: 86%
[3]
  residual activity: 83%
[4]
  residual activity: 100%
[5]
  residual activity: 100%
[6]
  residual activity: 100%
[7]
  residual activity: 97%
[8]
  residual activity: 100%
[9]
  residual activity: 91%
[10]
  residual activity: 91%
[11]
  residual activity: 93%
[12]
  residual activity: 92%
[13]
  residual activity: 100%
[14]
  residual activity: 99%
[15]
  residual activity: 90%
[16]
  residual activity: 100%
[17]
  residual activity: 89%
[18]
  residual activity: 93%
[19]
  residual activity: 100%
[20]
  residual activity: 84%
[21]
  residual activity: 73%
[22]
  residual activity: 100%
[23]
  residual activity: 69%
[24]
  residual activity: 100%
[25]
  residual activity: 75%
[26]
  residual activity: 99%
[27]
  residual activity: 100%
[28]
  residual activity: 100%
[29]
  residual activity: 100%
[30]
  residual activity: 84%
[31]
  residual activity: 78%
[32]
  residual activity: 75%
[33]
  residual activity: 100%
[34]
  residual activity: 100%
[35]
  residual activity: 80%
[36]
  residual activity: 99%
[37]
  residual activity: 100%
[38]
  residual activity: 90%
[39]
  residual activity: 100%
[40]
  residual activity: 100%
[41]
  residual activity: 81%
[42]
  residual activity: 100%
[43]
  residual activity: 80%
[44]
  inhibition: -8.35%
[45]
  inhibition: -1.24%

## Cn1nc(C(F)(F)F)cc1-c1cnc(N2CCc3cc(S(=O)(=O)Nc4c(F)cc(Cl)cc4F)cc(N4CCCC4=O)c32)nc1 [TP-020]
[1]
  residual activity: 82%
[2]
  residual activity: 87%
[3]
  residual activity: 100%
[4]
  residual activity: 88%
[5]
  residual activity: 100%
[6]
  residual activity: 100%
[7]
  residual activity: 68%
[8]
  residual activity: 86%
[9]
  residual activity: 94%
[10]
  residual activity: 100%
[11]
  residual activity: 95%
[12]
  residual activity: 96%
[13]
  residual activity: 82%
[14]
  residual activity: 85%
[15]
  residual activity: 94%
[16]
  residual activity: 99%
[17]
  residual activity: 89%
[18]
  residual activity: 96%
[19]
  residual activity: 81%
[20]
  residual activity: 95%
[21]
  residual activity: 88%
[22]
  residual activity: 88%
[23]
  residual activity: 94%
[24]
  residual activity: 84%
[25]
  residual activity: 93%
[26]
  residual activity: 97%
[27]
  residual activity: 100%
[28]
  residual activity: 100%
[29]
  residual activity: 73%
[30]
  residual activity: 76%
[31]
  residual activity: 82%
[32]
  residual activity: 93%
[33]
  residual activity: 79%
[34]
  residual activity: 96%
[35]
  residual activity: 90%
[36]
  residual activity: 100%
[37]
  residual activity: 34%
[38]
  residual activity: 97%
[39]
  residual activity: 90%
[40]
  residual activity: 100%
[41]
  residual activity: 87%
[42]
  residual activity: 98%
[43]
  residual activity: 78%
[44]
  inhibition: -6.95%
[45]
  inhibition: 28.7%
